Consider 39 compounds from BindingDB's records for doi:10.7270/Q2D798VP (Broad Institute, 2009).

Counter-ions that a name gives are not always drawn.

This assay concerns the target T1, Zinc finger protein mex-5 (Caenorhabditis elegans, UniProt Q9XUB2).
T1 sequence (Q9XUB2 whole entry): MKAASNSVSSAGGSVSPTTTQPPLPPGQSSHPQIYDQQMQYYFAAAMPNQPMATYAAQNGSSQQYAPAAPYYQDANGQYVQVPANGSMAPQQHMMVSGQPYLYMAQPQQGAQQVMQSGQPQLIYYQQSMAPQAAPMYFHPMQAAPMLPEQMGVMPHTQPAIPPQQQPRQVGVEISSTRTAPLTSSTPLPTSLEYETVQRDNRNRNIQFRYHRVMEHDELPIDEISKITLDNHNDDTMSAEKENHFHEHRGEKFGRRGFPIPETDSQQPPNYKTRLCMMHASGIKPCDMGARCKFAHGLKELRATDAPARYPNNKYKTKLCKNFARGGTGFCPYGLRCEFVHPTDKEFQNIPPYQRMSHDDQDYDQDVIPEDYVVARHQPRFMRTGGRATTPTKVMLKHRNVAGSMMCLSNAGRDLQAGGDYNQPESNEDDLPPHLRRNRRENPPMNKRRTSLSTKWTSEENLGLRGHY
In words: potency of MEX-5 RNA-binding blockers – biochemical, C. elegans, fluorescence polarization, dose response (AID 1960). On the technique in general: Fluorescence polarisation rises when a labelled molecule tumbles more slowly, as on binding a larger partner.
One may read the EC50 as the concentration that produces a half-maximal response. A higher EC50 goes with weaker potency. Consider `CC(C)c1nnc(N2C(=O)C(=O)C(C(=O)c3cccs3)C2c2ccccc2)s1` (centres undefined) [3-hydroxy-1-(5-isopropyl-1,3,4-thiadiazol-2-yl)-5-phenyl-4-(2-thenoyl)-3-pyrrolin-2-one], for which the EC50 was found to be 4.38 µM. Take `Cc1[nH]n(C(N)=S)c(=O)c1N=Nc1ccc(S(N)(=O)=O)cc1` [3-methyl-5-oxidanylidene-4-[(4-sulfamoylphenyl)diazenyl]-4H-pyrazole-1-carbothioamide]: the EC50 was 8.86 µM. Compound `O=C1CC(=O)c2c(O)cc(O)c(O)c2C1=O` [4,5,7,8-tetrahydroxy-1,2-naphthoquinone] registered an EC50 of 0.899 µM. Against the preceding compound, the EC50 is about 9.9-fold lower.

Regarding `COc1cc(C2C3=C(CCCC3=O)OC(=N)C2C#N)cc(OC)c1OC(=O)N1CCOCC1` (centres undefined) [4-(2-amino-3-cyano-5-oxo-5,6,7,8-tetrahydro-4H-chromen-4-yl)-2,6-dimethoxyphenyl morpholine-4-carboxylate], the EC50 was over 300 µM. `COc1cc(C2C3=C(CCCC3=O)OC(=N)C2C#N)ccc1OC(=O)N1CCOCC1` (centres undefined) [4-(2-amino-3-cyano-5-oxo-5,6,7,8-tetrahydro-4H-chromen-4-yl)-2-methoxyphenyl morpholine-4-carboxylate] came in with an EC50 of over 300 µM. Regarding `N#CC1C(=N)OC2=C(C(=O)CCC2)C1c1ccc(OC(=O)N2CCOCC2)cc1` (centres undefined) [4-(2-amino-3-cyano-5-oxo-5,6,7,8-tetrahydro-4H-chromen-4-yl)phenyl morpholine-4-carboxylate], the EC50 is over 300 µM. Under `COc1cc(C2NC(=S)N=C(C)C2C(=O)OC(C)C)ccc1OC(C)C` (centres undefined) [4-(3-methoxy-4-propan-2-yloxyphenyl)-6-methyl-2-sulfanylidene-3,4-dihydro-1H-pyrimidine-5-carboxylic acid propan-2-yl ester] stands over 300 µM. On to `O=C(O)c1ccc(NN=CC2=C(N3CCOCC3)C(=Cc3ccccc3)CC2)cc1` [4-[2-[[(3Z)-2-(4-morpholinyl)-3-(phenylmethylene)-1-cyclopentenyl]methylidene]hydrazinyl]benzoic acid], for which it took 109 µM to reach a half-maximal effect (EC50). Under `CC(=O)C1C(c2ccccc2)=NC(=O)NC1c1ccc(O)c(O)c1` (centres undefined) [4-[3,4-bis(oxidanyl)phenyl]-5-ethanoyl-6-phenyl-3,4-dihydro-1H-pyrimidin-2-one] stands 43.4 µM. To `Cc1ccc(-c2c(CCC(C)N=O)oc3ccc(Cl)cc23)o1` (centres undefined) [4-[5-chloro-3-(5-methyl-2-furanyl)-2-benzofuranyl]-2-butanone oxime] belongs over 300 µM; to `Cc1nnc(SC(=Cc2ccc(OCc3ccc(C(=O)O)cc3)cc2)C(=O)O)[nH]1` [4-[[4-[(E)-2-[(5-methyl-1H-1,2,4-triazol-3-yl)sulfanyl]-3-oxidanyl-3-oxidanylidene-prop-1-enyl]phenoxy]methyl]benzoic acid], 3.38 µM; to `COc1cc(S(=O)(=O)Nc2ccc(C)cc2)ccc1NC=C1C(=O)N(C)C(=O)C(C#N)=C1C` [4-[[(Z)-(5-cyano-1,4-dimethyl-2,6-dioxopyridin-3-ylidene)methyl]amino]-3-methoxy-N-(4-methylphenyl)benzenesulfonamide], 23.9 µM. Under `CC1(C)CC(=O)C2=C(C1)OC(=N)C(C#N)C2c1ccc(OC(=O)N2CCOCC2)cc1` (centres undefined) [4-morpholinecarboxylic acid [4-(2-amino-3-cyano-7,7-dimethyl-5-oxo-6,8-dihydro-4H-1-benzopyran-4-yl)phenyl] ester] stands over 300 µM. For the compound `Cc1cc(CN=Nc2ccc([N+](=O)[O-])cn2)c(C)n1-c1ccc(C(=O)O)cc1` [4-{2,5-dimethyl-3-[2-(5-nitro-2-pyridinyl)carbonohydrazonoyl]-1H-pyrrol-1-yl}benzoic acid], the EC50 turned out to be 111 µM. With `Cc1sc2ncnc(N=NC(C)c3ccccn3)c2c1C` (centres undefined) [5,6-dimethyl-N-(1-pyridin-2-ylethylideneamino)thieno[2,3-d]pyrimidin-4-amine], a half-maximal response (EC50) required 46.7 µM. For the compound `Fc1ccc(C2=Nc3ncnn3C(c3ccco3)C2)cc1` (centres undefined) [5-(4-fluorophenyl)-7-(2-furanyl)-1,7-dihydro-[1,2,4]triazolo[1,5-a]pyrimidine], the EC50 is 12.8 µM. Compared with the last compound, the EC50 is about 3.6-fold lower. Consider `NC(=NNC=c1ccc(=C2C=CC(=O)C(C(=O)O)=C2)o1)N[N+](=O)[O-]` [5-(5-{2-[amino(nitroimino)methyl]carbonohydrazonoyl}-2-furyl)-2-hydroxybenzoic acid], for which the half-maximal effective concentration (EC50) came to 26.1 µM. To `c1ccc(C2=Nc3nnnn3C(c3cccs3)C2)cc1` (centres undefined) [5-Phenyl-7-thiophen-2-yl-4,7-dihydro-tetrazolo[1,5-a]pyrimidine] belongs over 300 µM; to `COc1cc(CN=Nc2[nH]c(=O)nnc2C)ccc1O` [5-[2-[(E)-(3-methoxy-4-oxocyclohexa-2,5-dien-1-ylidene)methyl]hydrazinyl]-6-methyl-2H-1,2,4-triazin-3-one], 31.1 µM.

The compound `Cc1cc(C=NNC(=O)c2cccc(N(C)C)c2)c(C)n1-c1cc(C(=O)O)cc(C(=O)O)c1` [5-[3-((E)-{[3-(dimethylamino)benzoyl]hydrazono}methyl)-2,5-dimethyl-1H-pyrrol-1-yl]isophthalic acid] displayed an EC50 of 143 µM. Against the preceding compound, the EC50 is about 4.6-fold higher. Under `COC1=CC(CN=Nc2[nH]c(=O)nnc2C)C=C([N+](=O)[O-])C1=O` (centres undefined) [5-[[(E)-(3-methoxy-5-nitro-4-oxo-1-cyclohexa-2,5-dienylidene)methyl]hydrazo]-6-methyl-2H-1,2,4-triazin-3-one] stands 10.8 µM; under `O=C1N=c2ccc(Br)cc2=C1NNc1nnn[nH]1` [5-bromanyl-3-[2-(2H-1,2,3,4-tetrazol-5-yl)hydrazinyl]indol-2-one], 5.18 µM; under `Cc1ncc(C=O)c(CNNC(=O)c2cc(Br)ccc2O)c1O` [5-bromanyl-N'-[(Z)-[5-(hydroxymethyl)-2-methyl-3-oxidanylidene-pyridin-4-ylidene]methyl]-2-oxidanyl-benzohydrazide], 5.72 µM. Turning to `Cc1cccc(NNC2=c3cc(Br)ccc3=NC2=O)c1` [5-bromo-3-[2-(3-methylphenyl)hydrazinyl]indol-2-one], it took 26.9 µM to reach a half-maximal effect (EC50). Compared with the last compound, the EC50 is about 4.7-fold higher. Under `O=C(NN=Cc1c(O)ccc2ccccc12)c1cncc(Br)c1` [5-bromo-N'-[(Z)-(2-oxo-1-naphthalenylidene)methyl]-3-pyridinecarbohydrazide] stands 256 µM. Under `Cc1ccc(N/N=C2/C(=O)Nc3ccc(F)cc32)cc1` [5-fluoro-3-[2-(4-methylphenyl)hydrazono]indolin-2-one] stands over 300 µM. To `COc1cccc(C2C3CN(C)CCC3=C(C#N)C(=N)C2(C#N)C#N)c1OC` (centres undefined) [6-Amino-8-(2,3-dimethoxy-phenyl)-2-methyl-2,3,8,8a-tetrahydro-1H-isoquinoline-5,7,7-tricarbonitrile] belongs 8.49 µM; to `CCCN1CCC2=C(C#N)C(=N)C(C#N)(C#N)C(c3cc(OC)ccc3OC)C2C1` (centres undefined) [6-Amino-8-(2,5-dimethoxy-phenyl)-2-propyl-2,3,8,8a-tetrahydro-1H-isoquinoline-5,7,7-tricarbonitrile], 25.5 µM. For `N#CC1=C2CCOCC2C(c2cccnc2)C(C#N)(C#N)C1=N` (centres undefined) [6-Amino-8-pyridin-3-yl-8,8a-dihydro-1H,3H-isochromene-5,7,7-tricarbonitrile], the EC50 was over 300 µM. The compound `O=C(Cc1nc2cc([N+](=O)[O-])ccc2[nH]c1=O)c1ccccc1` [6-Nitro-3-(2-oxo-2-phenyl-ethylidene)-3,4-dihydro-1H-quinoxalin-2-one] had an EC50 of over 300 µM.

Compound `CN1CCC2=C(C#N)C(=N)C(C#N)(C#N)C(c3ccncc3)C2C1` (centres undefined) [6-amino-2-methyl-8-(4-pyridyl)-1,3,8,8a-tetrahydroisoquinoline-5,7,7-tricarbonitrile] displayed an EC50 of 7.73 µM. Under `CCOC(=O)C1=C(C)OC(=N)C(C#N)C1c1ccc(O)c(OC)c1` (centres undefined) [6-amino-5-cyano-4-(4-hydroxy-3-methoxyphenyl)-2-methyl-4H-pyran-3-carboxylic acid ethyl ester] stands over 300 µM. Under `CN1CCC2=C(C#N)C(=N)C(C#N)(C#N)C(c3cccc(Cl)c3Cl)C2C1` (centres undefined) [6-azanyl-8-[2,3-bis(chloranyl)phenyl]-2-methyl-1,3,8,8a-tetrahydroisoquinoline-5,7,7-tricarbonitrile] stands 13.5 µM; under `O=NC1CC2(CC(N=O)C1N=O)OCCO2` (centres undefined) [9-(hydroxyamino)-8-nitroso-1,4-dioxaspiro[4.5]dec-8-en-7-one oxime], 13 µM; under `Cc1ccc(N=CC2Sc3ccccc3NC2=O)cc1` (centres undefined) [(2E)-2-(p-toluidinomethylene)-4H-1,4-benzothiazin-3-one], over 300 µM.

For `CN(C)[C@@H]1C(=O)C(C(N)=O)C(=O)[C@@]2(O)C(=O)C3C(=O)c4c(O)cccc4[C@@](C)(O)[C@H]3[C@H](O)[C@@H]12` (stereo partly drawn) [(2E,4S,4aR,5S,5aR,6S,12aS)-2-[azanyl(oxidanyl)methylidene]-4-(dimethylamino)-6-methyl-5,6,10,11,12a-pentakis(oxidanyl)-4,4a,5,5a-tetrahydrotetracene-1,3,12-trione], the response was half-maximal at 29.9 µM (EC50). To `COc1ccc(C=C2CCCC(C(=O)C(F)(F)F)C2=O)cc1OC` (centres undefined) [(2E,6Z)-2-(3,4-dimethoxybenzylidene)-6-(2,2,2-trifluoro-1-hydroxyethylidene)cyclohexanone] belongs 254 µM; to `CN(C)c1ccc(O)c2c1CC1CC3C(N(C)C)C(=O)C(C(N)=O)C(=O)[C@@]3(O)C(=O)C1C2=O` (stereo partly drawn) [(2E,12aS)-2-[azanyl(oxidanyl)methylidene]-4,7-bis(dimethylamino)-10,11,12a-tris(oxidanyl)-4a,5,5a,6-tetrahydro-4H-tetracene-1,3,12-trione;hydrochloride], 37 µM.

Compound `COc1ccc(N=C(C)c2sc3ccccc3c2O)cc1` [(2Z)-2-[1-(4-methoxyanilino)ethylidene]-1-benzothiophen-3-one] had an EC50 of 17.7 µM.
